Measurements taken from patent publication US10577378B2, “EIF4A-inhibiting compounds and methods related thereto” (eFFECTOR Therapeutics, Inc., priority 2015, dated 2020).

Test system: MDA-MB-231 human breast cancer cells
Assay: Cell proliferation assay (CellTiter-Glo, 72 hours treatment)
Type: cell-based
Settings: Homo sapiens; MDA-MB-231 cells, 72 hours at 37° C., CellTiter-Glo; read-out: MDA-MB-231 cell proliferation assay (IC50)
Summary of the method: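 IC50 categories: under 100 nM +++, 100–1000 nM ++, above 1000 nM +, derived by sigmoidal curve fitting of CellTiter-Glo luminescence. Cells plated at 2,500 per well, dosed the following day and exposed 72 h at 37 °C versus DMSO control.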

| SMILES | IC50 |
| --- | --- |
| COc1cncc2c1[C@]1(O)[C@H](O)[C@H](C(=O)N3[C@@H]4CC[C@H]3COC4)[C@@H](c3ccccc3)[C@]1(c1ccc(Br)cc1)O2 (racemic) [264F, Rac-((1R,5S)-3-oxa-8-azabicyclo[3.2.1]octan-8-yl)((4bS,5R,6R,7S,7aR)-7a-(4-bromophenyl)-4b,5-dihydroxy-4-methoxy-7-phenyl-4b,6,7,7a-tetrahydro-5H-cyclopenta[4,5]furo[2,3-c]pyridin-6-yl)methanone] | < 100 nM |
| CN(C)C(=O)[C@@]12C[C@@H]1[C@@]1(O)c3ncc(Cl)cc3O[C@@]1(c1ccc(C#N)cc1)[C@@H]2c1ccccc1 (racemic) [31F, Rac-(5aR,6R,6aS,7aS,7bR)-3-chloro-5a-(4-cyanophenyl)-7b-hydroxy-N,N-dimethyl-6-phenyl-5a,7,7a,7b-tetrahydrocyclopropa[4′,5′]cyclopenta[1′,2′:4,5]furo[3,2-b]pyridine-6a(6H)-carboxamide] | > 1000 nM |
| COc1cncc2c1[C@]1(O)[C@@H](CNCC(F)F)[C@H](CO)[C@@H](c3ccccc3)[C@]1(c1ccc(Br)cc1)O2 (racemic) [181F, Rac-(4bR,5R,6R,7S,7aR)-7a-(4-bromophenyl)-5-(((2,2-difluoroethyl)amino)methyl)-6-(hydroxymethyl)-4-methoxy-7-phenyl-5,6,7,7a-tetrahydro-4bH-cyclopenta[4,5]furo[2,3-c]pyridin-4b-ol] | < 100 nM |
| N#Cc1ccc([C@@]23Oc4cc(C#N)cnc4[C@]2(O)[C@@H](CN)C[C@H]3c2ccccc2)cc1 (racemic) [176F, rac-(5aR,6S,8R,8aR)-8-(aminomethyl)-5a-(4-cyanophenyl)-8a-hydroxy-6-phenyl-5a,7,8,8a-tetrahydro-6H-cyclopenta[4,5]furo[3,2-b]pyridine-3-carbonitrile] | 100 to 1000 nM |
| O[C@@H]1C2(CC2)[C@@H](c2ccccc2)[C@]2(c3ccc(Br)cc3)Oc3cc(Cl)cnc3[C@]12O (racemic) [92F, Rac-(5aR,6R,8R,8aS)-5a-(4-bromophenyl)-3-chloro-6-phenyl-5a,6-dihydrospiro[cyclopenta[4,5]furo[3,2-b]pyridine-7,1′-cyclopropane]-8,8a(8H)-diol] | > 1000 nM |
| COc1cncc2c1[C@]1(O)[C@H](O)[C@H](CN(C)Cc3ccnn3C)[C@@H](c3ccccc3)[C@]1(c1ccc(C#N)cc1)O2 (single isomer, unassigned) [250F] | > 1000 nM |
| COc1nc(C#N)cc2c1[C@]1(O)[C@H](O)[C@H](CN3CCC(F)CC3)[C@@H](c3ccccc3)[C@]1(c1ccc(C#N)cc1)O2 (racemic) [156Fc, Rac-(5aR,6S,7S,8R,8aS)-5a-(4-cyanophenyl)-7-((4-fluoropiperidin-1-yl)methyl)-8,8a-dihydroxy-1-methoxy-6-phenyl-5a,7,8,8a-tetrahydro-6H-cyclopenta[4,5]furo[3,2-c]pyridine-3-carbonitrile] | < 100 nM |
| COc1ccc2c(n1)O[C@@]1(c3ccc(C#N)cc3)[C@H](c3ccccc3)[C@@H](C(=O)N(C)C)[C@@H](O)[C@@]21O (racemic) [15F, Rac-(4bS,5R,6R,7S,7aR)-7a-(4-cyanophenyl)-4b,5-dihydroxy-2-methoxy-N,N-dimethyl-7-phenyl-4b,6,7,7a-tetrahydro-5H-cyclopenta[4,5]furo[2,3-b]pyridine-6-carboxamide] | > 1000 nM |
| CNS(=O)(=O)[C@H]1[C@@H](O)[C@@]2(O)c3ncc(Cl)cc3O[C@@]2(c2ccc(Br)cc2)[C@@H]1c1ccccc1 (racemic) [124F, Rac-(5aR,6S,7R,8S,8aS)-5a-(4-bromophenyl)-3-chloro-8,8a-dihydroxy-N-methyl-6-phenyl-5a,7,8,8a-tetrahydro-6H-cyclopenta[4,5]furo[3,2-b]pyridine-7-sulfonamide] | 100 to 1000 nM |
| O=C1C[C@@H](c2ccccc2)[C@]2(c3ccc(Br)cc3)Oc3cc(Cl)cnc3[C@]12O (racemic) [129F, Rac-(5aR,6S,8aR)-5a-(4-bromophenyl)-3-chloro-8a-hydroxy-6-phenyl-5a,6,7,8a-tetrahydro-8H-cyclopenta[4,5]furo[3,2-b]pyridin-8-one] | > 1000 nM |
| COc1cncc2c1[C@]1(O)[C@@H](CN(C)C)[C@H](CO)[C@@H](c3ccccc3)[C@]1(c1ccc(C#N)cc1)O2 (racemic) [206F, Rac-4-((4bR,5R,6R,7S,7aR)-5-((dimethylamino)methyl)-4b-hydroxy-6-(hydroxymethyl)-4-methoxy-7-phenyl-4b,5,6,7-tetrahydro-7aH-cyclopenta[4,5]furo[2,3-c]pyridin-7a-yl)benzonitrile] | < 100 nM |
| CN(C)C[C@H]1[C@@H](C#N)[C@@]2(O)c3ncc(Cl)cc3O[C@@]2(c2ccc(Br)cc2)[C@@H]1c1ccccc1 (racemic) [227F, Rac-(5aR,6S,7R,8S,8aR)-5a-(4-bromophenyl)-3-chloro-7-((dimethylamino)methyl)-8a-hydroxy-6-phenyl-5a,7,8,8a-tetrahydro-6H-cyclopenta[4,5]furo[3,2-b]pyridine-8-carbonitrile] | > 1000 nM |
| COc1nc(C#N)cc2c1[C@]1(O)[C@H](O)[C@H](CN)[C@@H](c3ccccc3)[C@]1(c1ccc(C#N)cc1)O2 (racemic) [293F, Rac-(5aR,6S,7S,8R,8aS)-7-(aminomethyl)-5a-(4-cyanophenyl)-8,8a-dihydroxy-1-methoxy-6-phenyl-5a,7,8,8a-tetrahydro-6H-cyclopenta[4,5]furo[3,2-c]pyridine-3-carbonitrile] | < 100 nM |
| COc1cncc2c1[C@]1(O)[C@H](O)C(CN3CCN(C)CC3)[C@@H](c3ccccc3)[C@]1(c1ccc(C(F)(F)F)cc1)O2 (single isomer, unassigned) [284F] | 100 to 1000 nM |
| COc1cncc2c1[C@]1(O)[C@@H](CN)C[C@@H](c3ccccc3)[C@]1(c1ccc(C#N)cc1)O2 (racemic) [173F, Rac-4-((4bR,5R,7S,7aR)-5-(aminomethyl)-4b-hydroxy-4-methoxy-7-phenyl-4b,5,6,7-tetrahydro-7aH-cyclopenta[4,5]furo[2,3-c]pyridin-7a-yl)benzonitrile] | < 100 nM |
| CN(Cc1ccccc1)S(=O)(=O)[C@H]1[C@@H](O)[C@@]2(O)c3ncc(Cl)cc3O[C@@]2(c2ccc(Br)cc2)[C@@H]1c1ccccc1 (racemic) [123F, rac-(5aR,6S,7R,8S,8aS)—N-benzyl-5a-(4-bromophenyl)-3-chloro-8,8a-dihydroxy-N-methyl-6-phenyl-5a,7,8,8a-tetrahydro-6H-cyclopenta[4,5]furo[3,2-b]pyridine-7-sulfonamide] | 100 to 1000 nM |
| COc1nc(C#N)cc2c1[C@]1(O)[C@H](O)[C@H](CN(C)CC(F)F)[C@@H](c3ccccc3)[C@]1(c1ccc(C#N)cc1)O2 (racemic) [208Fa, Rac-(5aR,6S,7S,8R,8aS)-5a-(4-cyanophenyl)-7-(((2,2-difluoroethyl)(methyl)amino)methyl)-8,8a-dihydroxy-1-methoxy-6-phenyl-5a,7,8,8a-tetrahydro-6H-cyclopenta[4,5]furo[3,2-c]pyridine-3-carbonitrile] | 100 to 1000 nM |
| N#Cc1ccc([C@@]23Oc4cc(Cl)cnc4[C@]2(O)[C@H](O)C[C@H]3c2ccccc2)cc1 (racemic) [128F, Rac-4-((5aR,6S,8R,8aS)-3-chloro-8,8a-dihydroxy-6-phenyl-6,7,8,8a-tetrahydro-5aH-cyclopenta[4,5]furo[3,2-b]pyridin-5a-yl)benzonitrile] | 100 to 1000 nM |
| COc1nc(Cl)cc2c1[C@]1(O)[C@H](O)[C@H](CN3CC(F)C3)[C@@H](c3ccccc3)[C@]1(c1ccc(C#N)cc1)O2 (racemic) [211Fb, Rac-4-((5aR,6S,7S,8R,8aS)-3-chloro-7-((3-fluoroazetidin-1-yl)methyl)-8,8a-dihydroxy-1-methoxy-6-phenyl-6,7,8,8a-tetrahydro-5aH-cyclopenta[4,5]furo[3,2-c]pyridin-5a-yl)benzonitrile] | < 100 nM |
| COC(=O)[C@@H]1C(c2ccccc2)[C@]2(c3ccc(I)cc3)Oc3cncc(OC)c3[C@]2(O)[C@@H]1O (mixture of isomers) [193F, Rac-Methyl (4bS,5R,6R,7aR)-4b,5-dihydroxy-7a-(4-iodophenyl)-4-methoxy-7-phenyl-4b,6,7,7a-tetrahydro-5H-cyclopenta[4,5]furo[2,3-c]pyridine-6-carboxylate] | 100 to 1000 nM |
| COc1cncc2c1[C@]1(O)[C@H](O)[C@H](CN3CCCC3)[C@@H](c3ccccc3)[C@]1(c1ccc(C#N)cc1)O2 (racemic) [72F, rac-4-((4bS,5R,6S,7S,7aR)-4b,5-dihydroxy-4-methoxy-7-phenyl-6-(pyrrolidin-1-ylmethyl)-4b,5,6,7-tetrahydro-7aH-cyclopenta[4,5]furo[2,3-c]pyridin-7a-yl)benzonitrile] | 100 to 1000 nM |
| COC(=O)[C@H]1[C@@H](O)[C@@]2(O)c3c(cc(Cl)nc3OC)O[C@@]2(c2ccc(Br)cc2)[C@@H]1c1ccccc1 (racemic) [136F, Rac-Methyl (5aR,6S,7R,8R,8aS)-5a-(4-bromophenyl)-3-chloro-8,8a-dihydroxy-1-methoxy-6-phenyl-5a,7,8,8a-tetrahydro-6H-cyclopenta[4,5]furo[3,2-c]pyridine-7-carboxylate] | < 100 nM |
| COc1cncc2c1[C@]1(O)[C@H](O)[C@H](S(C)(=O)=O)[C@@H](c3ccccc3)[C@]1(c1ccc(Br)cc1)O2 (racemic) [101F, rac-(4bS,5S,6R,7S,7aR)-7a-(4-bromophenyl)-4-methoxy-6-(methylsulfonyl)-7-phenyl-5,6,7,7a-tetrahydro-4bH-cyclopenta[4,5]furo[2,3-c]pyridine-4b,5-diol] | 100 to 1000 nM |
| COc1nc(C#N)cc2c1[C@]1(O)[C@@H](CN3CCOCC3)[C@H](CO)[C@@H](c3ccccc3)[C@]1(c1ccc(C#N)cc1)O2 (racemic) [200F, Rac-(5aR,6S,7R,8R,8aR)-5a-(4-cyanophenyl)-8a-hydroxy-7-(hydroxymethyl)-1-methoxy-8-(morpholinomethyl)-6-phenyl-5a,7,8,8a-tetrahydro-6H-cyclopenta[4,5]furo[3,2-c]pyridine-3-carbonitrile] | < 100 nM |
| CN(C)C(=O)[C@H]1[C@@H](O)[C@@]2(O)c3c(Cl)cncc3O[C@@]2(c2ccc(C#N)cc2)[C@@H]1c1ccccc1 (single isomer, unassigned) [98F] | 100 to 1000 nM |
